Data from US12173291B2, “Unnatural base pair compositions and methods of use” (THE SCRIPPS RESEARCH INSTITUTE, priority 2017, dated 2024).

Legend:
E. coli BL21(DE3) SSO = experiment: Growth of chromosomal UBP integrants with or without dNaMTP and dTPT3TP (doubling time); assay type: cell-based; details: ΔrecA-Opt and Pol II+ΔrecA integrants, dNaMTP and dTPT3TP provided together in media
Description: Mid-log phase cells WT-Opt, ΔrecA-Opt, and Pol II^+ΔrecA-Opt SSOs and their corresponding chromosomal UBP integrants (described above) were prepared using the following procedure. Saturated overnight cultures were prepared by inoculation of 2×YT containing chloramphenicol (5 μg/mL), dTPT3TP (37.5 μM), dNaMTP (150 μM), and KPi (50 mM, pH 7) from glycerol stock stabs and overnight growth (approximately 14 h) at 37° C. at 230 RPM. These cells were diluted to 0.03 OD600 in 500 μL 2×YT containing chloramphenicol (5 μg/mL), dTPT3TP (37.5 μM), dNaMTP (150 μM), and KPi (50 mM, pH 7) and grown at 37° C. at 230 RPM. Growth was monitored by OD600. Once cells reached mid-log phase (0.3-0.5 OD600), they were diluted to 0.013 OD600 in 500 μL 2×YT containing chloramphenicol (5 μg/mL), dTPT3TP (37.5 μM), dNaMTP (150 μM), and KPi (50 mM, pH 7) or 2×YT containing chloramphenicol (5 μg/mL) and KPi (50 mM, pH 7) in a 48-well plate and grown at 37° C. at 230 RPM. OD600 was measured every 30 min. This procedure was performed in triplicate for each strain starting from inoculation of overnight cultures.
OD600 data from each experiment was analyzed to obtain a theoretical cell doubling time (FIG. 2B and FIGS. 8A-8B). […]
Where ODi is the OD600 at time (t), OD0 is minimum OD600 value for a given data set, and CGrowth is the growth constant. […] Doubling times (DT) were calculated using the following equation: […]

OneTaq DNA Polymerase = experiment: PCR amplification of long DNAs (overlap assembly PCR); assay type: biochemical; details: presence of dTPT3TP in PCR
Description: The UBP knock-in cassette for the arsB locus (FIGS. 7A-7C) was produced through overlapping PCR of a 150-bp dsDNA containing a UBP and the kanamycin resistance gene of pKD13. The 150 bp DNA was produced with a 50-μL PCR using the same reaction solution conditions as above and the following temperature regime (time in mm:ss): [98° C. 02:00|5×(98° C. 00:10|50° C. 00:10|68° C. 04:00)|15×(98° C. 00:10|58° C. 00:10|68° C. 04:00)]. The kanamycin resistance gene amplicon was produced through PCR amplification off pKD13 using Q5 DNA polymerase as per manufacturer recommendations. The amplification of long DNAs (approximately 200 bp or longer) is inhibited by the presence of dTPT3TP. Therefore, the overlap assembly PCR of the UBP containing amplicon and kanamycin resistance gene amplicon was performed on large-scale (2 mL of reaction mixture split into 40 individual 50-μL reactions) with the following solution conditions: UBP containing amplicon (0.02 ng/μL), kanamycin resistance gene amplicon (0.02 ng/μL), primers (1 μM), dTPT3TP (5 μM), dNaMTP (100 μM), dNTPs (200 μM), MgSO4 (1.2 mM), OneTaq DNA Polymerase (0.025 U/μL), and OneTaq Standard Reaction Buffer (1 x). The reactions were subjected to the following temperature regime (time in mm:ss): [98° C. 02:00|5×(98° C. 00:10|50° C. 00:10|68° C. 04:00)|15×(98° C. 00:10|58° C. 00:10|68° C. 04:00)]. […]

**Q.** With COc1cc2ccccc2cc1[C@H]1C[C@H](O)[C@@H](COP(=O)(O)OP(=O)(O)OP(=O)(O)O)O1 [dNaMTP, triphosphate of dNaM] as the compound, how does the “Growth defect of chromosomal UBP integrants” value (E. coli BL21(DE3) SSO) read?
**A.** almost entirely eliminated

**Q.** O=P(O)(O)OP(=O)(O)OP(=O)(O)OC[C@H]1O[C@@H](n2ccc3ccsc3c2=S)C[C@@H]1O [dTPT3TP] was tested. Which “Amplification of long DNAs (approximately 200 bp or longer)” value (OneTaq DNA Polymerase) did it give?
**A.** inhibited

**Q.** And the “Growth defect of chromosomal UBP integrants” value (E. coli BL21(DE3) SSO)?
**A.** almost entirely eliminated
